Key:
IKKβ = target: T1, IKKβ (Homo sapiens, UniProt O14920); test: IKKβ kinase inhibition; format: biochemical; conditions: read-out: IC50 against IKKβ
T1 sequence (O14920 1-756): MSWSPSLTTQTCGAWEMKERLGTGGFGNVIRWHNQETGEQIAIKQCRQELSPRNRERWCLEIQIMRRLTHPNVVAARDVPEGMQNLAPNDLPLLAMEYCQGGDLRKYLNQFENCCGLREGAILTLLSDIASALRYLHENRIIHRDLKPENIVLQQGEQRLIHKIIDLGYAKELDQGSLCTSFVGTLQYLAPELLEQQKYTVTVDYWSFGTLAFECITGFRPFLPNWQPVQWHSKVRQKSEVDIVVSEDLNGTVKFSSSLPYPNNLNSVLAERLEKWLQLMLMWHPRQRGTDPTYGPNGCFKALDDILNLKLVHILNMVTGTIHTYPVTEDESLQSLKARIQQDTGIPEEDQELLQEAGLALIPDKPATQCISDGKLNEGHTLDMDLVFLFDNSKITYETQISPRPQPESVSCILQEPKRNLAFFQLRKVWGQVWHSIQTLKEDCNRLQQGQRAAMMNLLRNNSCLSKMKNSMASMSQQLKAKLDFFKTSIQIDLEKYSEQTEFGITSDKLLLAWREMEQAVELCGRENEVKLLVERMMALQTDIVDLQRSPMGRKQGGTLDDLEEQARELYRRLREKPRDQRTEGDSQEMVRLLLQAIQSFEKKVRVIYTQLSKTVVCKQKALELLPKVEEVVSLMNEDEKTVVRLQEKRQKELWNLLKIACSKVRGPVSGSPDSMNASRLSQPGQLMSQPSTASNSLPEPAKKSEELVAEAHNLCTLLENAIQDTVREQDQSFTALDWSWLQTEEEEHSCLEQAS
Text: To further explore how (+)-ainsliadimer A inactivates IKKα/β, we conducted the molecular dynamics (MD) simulations using the first crystal structure of IKKβ^29 to sample the conformational states of IKKβ upon 223 binding. […] We next asked whether 223 could directly affect IKKβ kinase activity.

[1] = tested on: Phosphorylation of IKKα/β; test: TRAF6-induced IKKα/β phosphorylation in S100 cell lysates from 293T cells; format: biochemical; conditions: S100 cell lysates from 293T cells with recombinant TRAF6
Protocol: TNF receptor-associated factors (TRAFs) are important intermediates in NF-κB signaling pathway. For example, TRAF2 and TRAF5 regulate TNF-α receptor triggered IKK activation, whereas TRAF6 is required for IL-1 induced IKK activation^2. The latter pathway can be reconstituted in cell-free extracts by adding recombinant TRAF6 protein. Phosphorylation of IKKα/β was detected in S100 cell lysates from 293T cells when incubated with recombinant TRAF6.

IKKγ/NEMO = IKKγ/NEMO (Homo sapiens, UniProt Q9Y6K9); test: Association with other NF-κB pathway proteins; format: binding
Chain of IKKγ/NEMO (Q9Y6K9 whole entry): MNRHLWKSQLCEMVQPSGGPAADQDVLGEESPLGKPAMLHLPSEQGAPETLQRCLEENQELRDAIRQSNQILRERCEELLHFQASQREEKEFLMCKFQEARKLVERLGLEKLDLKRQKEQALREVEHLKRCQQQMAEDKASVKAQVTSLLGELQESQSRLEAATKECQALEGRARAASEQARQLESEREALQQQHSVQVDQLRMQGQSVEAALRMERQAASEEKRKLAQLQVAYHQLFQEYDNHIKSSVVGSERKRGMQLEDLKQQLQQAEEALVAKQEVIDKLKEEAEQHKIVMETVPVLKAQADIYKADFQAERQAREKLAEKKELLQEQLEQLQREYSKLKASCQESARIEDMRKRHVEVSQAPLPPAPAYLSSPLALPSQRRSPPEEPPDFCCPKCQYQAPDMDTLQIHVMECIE

[2] = tested on: BGC-823 human gastric adenocarcinoma xenograft; test: BGC-823 xenograft in nude mice; format: in vivo; conditions: 223 25 mg/kg, qdx8
Protocol: Next we further examined anti-tumor effect of 223 in vivo. Nude mice bearing a BGC-823 human gastric adenocarcinoma xenograft were treated with vehicle or 223 (25 mg/kg, qdx8) or 10-hydroxycamptothecin (HCPT), a widely used anti-tumor drug (30 mg/kg, q6dx2).

[3] = tested on: peptides 1A, 2A, 1S and 2S (cysteine 46 replaced by alanine or serine); test: Peptide binding by MALDI-TOF; parameters: species or system human
phosphorylation of IκBα = test: TNF induced IκBα phosphorylation in different cell lines; format: cell-based
IKKα Cys46 into serine = target: T2, IKKα Cys46 into serine (Homo sapiens, UniProt O15111, C46S); test: Binding to Cys46-to-serine mutant
T2 construct: Flag; made in house
T2 sequence (O15111 whole entry C46S): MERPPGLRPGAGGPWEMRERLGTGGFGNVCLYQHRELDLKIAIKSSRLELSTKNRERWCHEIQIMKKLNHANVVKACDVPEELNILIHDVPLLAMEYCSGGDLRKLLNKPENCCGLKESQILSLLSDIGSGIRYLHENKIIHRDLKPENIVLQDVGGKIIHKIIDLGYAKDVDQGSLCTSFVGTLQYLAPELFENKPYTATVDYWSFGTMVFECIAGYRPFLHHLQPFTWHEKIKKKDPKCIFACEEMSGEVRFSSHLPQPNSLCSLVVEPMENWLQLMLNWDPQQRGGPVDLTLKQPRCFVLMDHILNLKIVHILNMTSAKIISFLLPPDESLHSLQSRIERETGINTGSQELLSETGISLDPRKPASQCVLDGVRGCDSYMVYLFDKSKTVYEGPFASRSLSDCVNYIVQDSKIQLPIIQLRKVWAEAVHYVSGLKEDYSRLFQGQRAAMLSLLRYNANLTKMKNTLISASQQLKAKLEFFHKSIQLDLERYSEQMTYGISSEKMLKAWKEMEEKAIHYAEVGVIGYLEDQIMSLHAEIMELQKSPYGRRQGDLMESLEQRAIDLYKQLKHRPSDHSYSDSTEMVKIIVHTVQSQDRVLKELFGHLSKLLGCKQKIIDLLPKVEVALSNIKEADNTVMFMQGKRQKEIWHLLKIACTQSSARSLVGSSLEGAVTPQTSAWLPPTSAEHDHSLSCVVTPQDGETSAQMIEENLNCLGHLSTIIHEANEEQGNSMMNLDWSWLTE

WT-IKKβ = WT-IKKβ (Homo sapiens, UniProt O14920); test: In vitro kinase assay with Flag-IκBα substrate
[4] = tested on: cervical cancer HeLa cells; test: Cancer cell survival; format: cell-based, human
[5] = tested on: gastric adenocarcinoma BCG-823 cells; test: Cancer cell survival; format: cell-based, human
[6] = tested on: IKKβ C215 containing peptides #3 and #4; test: Peptide binding by MALDI-TOF; parameters: species or system human
recombinant Flag-IKKβ = target: T3, recombinant Flag-IKKβ (Homo sapiens, UniProt O14920); test: Binding to purified recombinant protein (SDS-PAGE, streptavidin blot); conditions: excess unlabeled compound
T3 construct: made in house; host or cells: 293T cells (transient transfection, anti-Flag purification)
Protocol: To determine whether 223 directly binds to IKKα and IKKβ, we generated recombinant IKKα and IKKβ proteins for further analysis. 293T cells were transfected with Flag-IKKα or Flag-IKKβ plasmid, and the recombinant Flag-IKKα or Flag-IKKβ was captured by anti-Flag agarose beads and was then eluted off the beads using Flag peptide. The purified Flag-IKKα or Flag-IKKβ was incubated with DMSO or increasing concentrations of Probe, and then the mixtures were resolved by SDS-PAGE, followed by immunoblotting with streptavidin or anti-Flag antibody.

C46A-IKKβ = C46A-IKKβ (Homo sapiens, UniProt O14920, C46A); test: In vitro kinase assay with Flag-IκBα substrate
Chain of C46A-IKKβ (O14920 whole entry C46A, the tested form may be a part): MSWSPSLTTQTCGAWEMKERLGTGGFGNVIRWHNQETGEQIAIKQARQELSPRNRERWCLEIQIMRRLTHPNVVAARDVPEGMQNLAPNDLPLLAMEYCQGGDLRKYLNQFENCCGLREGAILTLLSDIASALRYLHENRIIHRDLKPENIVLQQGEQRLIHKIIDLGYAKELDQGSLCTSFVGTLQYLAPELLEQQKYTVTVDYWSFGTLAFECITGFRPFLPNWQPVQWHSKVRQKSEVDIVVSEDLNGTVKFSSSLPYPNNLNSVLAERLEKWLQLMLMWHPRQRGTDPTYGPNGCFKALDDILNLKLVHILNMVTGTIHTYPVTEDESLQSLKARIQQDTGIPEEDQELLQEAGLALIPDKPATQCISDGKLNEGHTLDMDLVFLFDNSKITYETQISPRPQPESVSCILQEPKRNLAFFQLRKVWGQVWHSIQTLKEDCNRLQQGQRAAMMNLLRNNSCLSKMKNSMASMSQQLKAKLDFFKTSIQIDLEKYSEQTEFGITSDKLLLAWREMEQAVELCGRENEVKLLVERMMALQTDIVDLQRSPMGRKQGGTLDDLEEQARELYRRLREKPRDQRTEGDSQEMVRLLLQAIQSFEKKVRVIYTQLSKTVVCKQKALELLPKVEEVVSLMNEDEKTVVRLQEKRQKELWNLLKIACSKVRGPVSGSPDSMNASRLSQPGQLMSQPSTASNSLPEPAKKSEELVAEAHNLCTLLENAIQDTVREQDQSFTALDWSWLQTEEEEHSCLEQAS

[7] = target: T4, IKKβ C46 containing peptide (#1, #2; amino acids 41-53) (Homo sapiens, UniProt O14920); test: Peptide binding by MALDI-TOF
T4 construct: encompasses amino acids 41-53 of human IKKβ; made in house; host or cells: chemical peptide synthesis
Protocol: (§1) This peptide was tested for binding to 223 and probe by using MALDI-TOF (Matrix-Assisted […] Desorption/Ionization Time of Flight). m/z values at 2,047.978 and 2,479.259 were well matched with the calculated weights of #1+223 and #1+Probe, respectively. […] As expected, the peptide #2 containing amino acids 41-53 of human IKKβ interacted with both 223 and probe.

[8] = tested on: IKKβ C46 containing peptide (#1, #2; amino acids 41-53); test: Peptide binding by MALDI-TOF; parameters: species or system human
Protocol: as §1

IKKβ C46A = target: T5, IKKβ C46A (Homo sapiens, UniProt O14920, C46A); test: Binding to IKKβ cysteine mutants
T5 construct: Flag; made in house
T5 sequence (O14920 whole entry C46A): as the sequence (O14920 whole entry C46A, the tested form may be a part) above

[9] = tested on: NIK-mediated production of p52 (IKKα activity); test: NIK-mediated non-canonical NF-κB activation (processing of p100 to p52); format: cell-based; conditions: ectopic expression of NIK
Text: Since phosphorylation of p100 by IKKα is critical for NIK-mediated activation of the non-canonical NF-κB, we further investigated the effect of 223 on non-canonical NF-κB activation.

## C=C1C(=O)O[C@@H]2[C@@H]3[C@@H](C[C@@]4(O)[C@]3(O)CC[C@]43C(=O)C[C@H]4C(=C)CC[C@H]5C(=C)C(=O)O[C@@H]5[C@H]43)C(=C)CC[C@@H]12 [Compound 223, (+)-Ainsliadimer A]
IKKβ
  IC50: 76 nM
[1]
  TRAF6-induced phosphorylation of IKKα/β: completely abolished
IKKγ/NEMO
  association with IKKγ/NEMO: no association
[2]
  anti-tumor effect relative to HCPT (30 mg/kg, q6dx2): comparable
[2]; HCPT 30 mg/kg, q6dx2
  side effects and body weight during administration: did not display any discernible side effects or significant changes in body weight
[2]; after 12 days
  mice with significant tumor remission: eight of eight
[2]; after 12 days, compared to vehicle
  xenograft tumor response: Significant xenograft tumor remission
[3]
  binding to peptides 1A, 2A, 1S and 2S: lost the ability to bind
Phosphorylation of IκBα
  TNF induced phosphorylation of IκBα: significantly inhibited
IKKα Cys46 into serine
  interaction with IKKα Cys46 to serine mutant: abolished
WT-IKKβ
  WT-IKKβ-induced phosphorylation of IκBα: significantly suppressed
[4]; 48 hours
  inhibition of cell survival (cell viability by ATP levels): dose response inhibition
[4]; different concentration
  cell death: Dramatic cell death
[5]; BCG-823, 48 hours
  inhibition of cell survival (cell viability by ATP levels): dose response inhibition
[5]; BCG-823, different concentration
  cell death: Dramatic cell death
[6]
  association with peptides #3 and #4: no association
Recombinant Flag-IKKβ
  competition of Probe binding to recombinant IKKβ: competed off
C46A-IKKβ
  phosphorylation of IκBα triggered by C46A-IKKβ: resistant
[7]
  binding to peptide #1: could bind
[8]
  interaction with peptide #2: interacted
IKKβ C46A
  interaction of IKKβ C46A mutant with compound: completely lost the ability to interaction
[9]
  NIK-mediated production of p52: prevented
